From patent publication US5529984A, “Endoparasiticidal compositions based on open-chain hexadepsipeptides” (Bayer Aktiengesellschaft, priority 1993, dated 1996)

Test system: Haemonchus contortus
Test: In vivo nematode test Haemonchus contortus/sheep
Conditions: sheep infected experimentally with Haemonchus contortus; pure active compound orally and/or intravenously; dose after which egg excretion with the faeces has stopped completely
Experimental: Haemonchus contortus/sheep
Sheep infected experimentally with Haemonchus contortus were treated after the prepatency period of the parasite had elapsed. The active compounds were administered orally and/or intravenously in the form of the pure active compound.
The degree of effectiveness is determined by quantitatively determining the nematode eggs excreted with the faeces before and after the treatment.
If egg excretion has stopped completely after the treatment, this means that the nematodes were aborted or are damaged to such an extent that they no longer produce eggs (Dosis effective).
Active compounds which have been tested and effective dosage rates (Dosis effective) can be seen from the table which follows: […]

CCC(C)C(C(=O)OC(C)C(=O)N(C)C(C(=O)OC(C)C(=O)N(C)C(C(=O)OC(C)C(=O)O)C(C)CC)C(C)CC)N(C)C(=O)OCc1ccccc1 [Example 3, N-Benzyloxycarbonyl-N-methyl-L-isoleucyl-D -lactyl-N-methyl-L-isoleucyl-D-lactyl-N-methyl-n-isoleucyl-D-lactic acid]
Dosis effective: 10 mg/kg
